Data reported in PubChem BioAssay AID2060901 (Molecular Pharmacology Branch, DTP, NCI, 2025).

Tested on: 422866-222-R5-J1-PDC complex spheroids viability
Assay: Anticancer human tumor 422866-222-R5-J1-PDC patient-derived pancreatic adenocarcinoma cell line growth inhibition [RAS]
Settings: for IC50: curve of first compound; for viability, T/C: stronger effect = lower value
Description: RAS pathway inhibitors in Combinations in Complex Spheroids
A high-throughput screen of multi-cell type tumor spheroids was designed to identify active combinations of RAS pathway inhibitors and targeted small molecules. Complex spheroids include a stromal component modeled by human endothelial cells (HUVEC) and fibroblasts modeled by human mesenchymal stem cells (MSCs). The concentration ranges selected for each drug and investigational agent were based upon clinically achievable concentrations if the clinical Cmax of the agent was known.
Compounds. The drugs and investigational agents: abemaciclib (NSC768073), cobimetinib (NSC768068), divarasib (GDC6063, NSC841802), docetaxel (NSC628503), GDC-1971 (RLY-1971, NSC841576), gemcitabine (NSC613327), inavolisib (NSC800729), ipatasertib (NSC767898), KB-0742 (NSC834161), MRTX-1133 (NSC836407), osimertinib (NSC779217), RMC-4630 (NSC839698), RMC-6236 (NSC851965), RMC-6291 (NSC852671), Ro-3306 (NSC812927), sapanisertib (NSC764658), SN-38 (NSC673596), staurosporine (NSC755774), SY5609 (NSC837396), and tovorafenib (DAY101, NSC766906), were obtained from the National Cancer Institute (NCI) Developmental Therapeutics Program Chemical Repository. The FDA-approved anticancer drug set is available from the NCI Developmental Therapeutics Program. […] The stock solutions were prepared in dimethyl sulfoxide (DMSO, Sigma-Aldrich, St. Louis, MO, cat. D2650) at 800-fold the tested concentration and stored at -70 degrees C prior to their use. All drugs and investigational agents were tested over a range starting from a high concentration at or near the clinical Cmax and decreasing in half-log increments. If the clinical Cmax for an agent had not been determined, the highest concentration tested was 10 microM.
Cell Culture. All cells were maintained in an incubator at 37 degrees C and 5% CO2 with 95% humidity. The PDC lines were cultured according to standard operating procedures established by the NCI PDMR. All PDCs were thawed and cultured in Matrigel-coated flasks prepared with a working solution of 1X Ham's F-12 nutrient mix, without supplementation (Invitrogen, Waltham, MA, cat. 11765054), 100 U/mL penicillin-streptomycin (Invitrogen, cat. 15140122), and 2.5% Matrigel (Corning Inc., Corning, NY, cat. 354248) for the first three passages. The 362531-283-R-J2-PDC and 782815-120-R-J1-PDC lines were cultured in 6C/Colon 1B media, which includes advanced DMEM/F-12 (Thermo Fisher Scientific, cat. 12634028), 10 mM HEPES (Thermo Fisher Scientific, cat. 15630080), 1X GlutaMAX supplement (Thermo Fisher Scientific, cat. 35050061), 0.1 mg/mL primocin (InvivoGen, San Diego, CA, cat. ant-pm-2), 10% defined fetal bovine serum, heat inactivated (HyClone Laboratories Inc., Logan, UT, cat. SH30070.03HI), 50% L-WRN conditioned media (ATCC, cat. CRL-3276), 1.25 mM N-Acetyl-L-cysteine (Sigma-Aldrich, cat. A9165), 10 mM nicotinamide (Sigma-Aldrich, cat. N0636), 1X B-27 supplement (Thermo Fisher Scientific, cat. 17504044), 1X N-2 supplement (Thermo Fisher Scientific, cat. 17502048), 50 ng/mL human EGF (Thermo Fisher Scientific, cat. PHG0311), and 10 microM Y-27632 dihydrochloride (Tocris Bioscience, cat. 1254). The K12877-001-R-J1-PDC line was cultured in 6I media, which includes all 6C/Colon 1B media plus 10 ng/mL human FGF-10 (PeproTech, cat. 100-26), 1 ng/mL human FGF-2 (PeproTech, cat. 100-18B), 1 µM prostaglandin E2 (Tocris Bioscience, cat. 2296), […] hydrocortisone (Sigma-Aldrich, cat. H4001), and […] bovine insulin (Sigma-Aldrich, cat. I6634). The K86415-001-R-J1-PDC line was cultured in 6D media, which includes all 6C/Colon 1B media components minus the L-WRN conditioned media. The 485176-168-R4-J1-PDC was cultured in PANC media, which includes all 6C/Colon 1B media plus 100 ng/mL human FGF-10 (PeproTech, cat. 100-26), 500 nM SB-431542 (Selleckchem, cat. S1067), and 10 nM gastrin (Tocris Bioscience, cat. 3006). […]

[1] = second compound 0.0316 µM, first compound 0.0316 µM
[2] = second compound 0.0316 µM, first compound 0.1 µM
[3] = second compound 0.0316 µM, first compound 0.316 µM
[4] = second compound 0.0316 µM, first compound 1 µM
[5] = second compound 0.0316 µM, first compound 3.16 µM
[6] = second compound 0.0316 µM, first compound 10 µM
[7] = second compound 0.1 µM, first compound 0.0316 µM
[8] = second compound 0.1 µM, first compound 0.1 µM
[9] = second compound 0.1 µM, first compound 0.316 µM
[10] = second compound 0.1 µM, first compound 1 µM
[11] = second compound 0.1 µM, first compound 3.16 µM
[12] = second compound 0.1 µM, first compound 10 µM
[13] = second compound 0.316 µM, first compound 0.0316 µM
[14] = second compound 0.316 µM, first compound 0.1 µM
[15] = second compound 0.316 µM, first compound 0.316 µM
[16] = second compound 0.316 µM, first compound 1 µM
[17] = second compound 0.316 µM, first compound 3.16 µM
[18] = second compound 0.316 µM, first compound 10 µM
[19] = second compound 1 µM, first compound 0.0316 µM
[20] = second compound 1 µM, first compound 0.1 µM
[21] = second compound 1 µM, first compound 0.316 µM
[22] = second compound 1 µM, first compound 1 µM
[23] = second compound 1 µM, first compound 3.16 µM
[24] = second compound 1 µM, first compound 10 µM
[25] = second compound 3.16 µM, first compound 0.0316 µM
[26] = second compound 3.16 µM, first compound 0.1 µM
[27] = second compound 3.16 µM, first compound 0.316 µM
[28] = second compound 3.16 µM, first compound 1 µM
[29] = second compound 3.16 µM, first compound 3.16 µM
[30] = second compound 3.16 µM, first compound 10 µM
[31] = second compound 10 µM, first compound 0.0316 µM
[32] = second compound 10 µM, first compound 0.1 µM
[33] = second compound 10 µM, first compound 0.316 µM
[34] = second compound 10 µM, first compound 1 µM
[35] = second compound 10 µM, first compound 3.16 µM
[36] = second compound 10 µM, first compound 10 µM
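Throughout, for viability, T/C: 100% = DMSO vehicle control viability.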

In the case of `CCC(CC)c1cc(NC2CCC(N)C2)n2nccc2n1` (stereo unspecified) + C#Cc1c(F)ccc2cc(O)cc(-c3ncc4c(N5CC6CCC(C5)N6)nc(OCC56CCCN5CC(F)C6)nc4c3F)c12, the IC50 (second compound 0.0316 µM) is reported as 1860 nM, the IC50 (second compound 0.1 µM) is reported as 1690 nM and the IC50 (second compound 0.316 µM) is reported as 1340 nM. The IC50 (second compound 1 µM) was 466 nM, the IC50 (second compound 3.16 µM) was less than 31.6 nM and the IC50 (second compound 10 µM) was less than 31.6 nM. For the same compound, the viability, T/C [1] was 97.8%, the viability, T/C [2] was 104% and the viability, T/C [3] was 118%. The viability, T/C [4] was 75.7%, the viability, T/C [5] was 19.7% and the viability, T/C [6] was 36.2%. For the same compound, the viability, T/C [7] was 99%, the viability, T/C [8] was 125% and the viability, T/C [9] was 98.2%. It also gave a viability, T/C [10] of 71.9%, a viability, T/C [11] of 12.5% and a viability, T/C [12] of 35.3%. It also gave a viability, T/C [13] of 75%, a viability, T/C [14] of 85.1% and a viability, T/C [15] of 83.4%. For the same compound, the viability, T/C [16] was 58.5%, the viability, T/C [17] was 12.3% and the viability, T/C [18] was 38.6%. It also gave a viability, T/C [19] of 50.2%, a viability, T/C [20] of 57.9% and a viability, T/C [21] of 47.8%. The viability, T/C [22] was 46.1%, the viability, T/C [23] was 12.7% and the viability, T/C [24] was 35.3%. It also gave a viability, T/C [25] of 35.6%, a viability, T/C [26] of 28.6% and a viability, T/C [27] of 33.3%. It also gave a viability, T/C [28] of 33.9%, a viability, T/C [29] of 10.5% and a viability, T/C [30] of 39.9%. It also gave a viability, T/C [31] of 21.7%, a viability, T/C [32] of 24.9% and a viability, T/C [33] of 30.2%. For the same compound, the viability, T/C [34] was 27.6%, the viability, T/C [35] was 9.17% and the viability, T/C [36] was 35%.
`Cc1nc(N2CCC3(CC2)COC(C)C3N)c(CO)nc1Sc1ccnc(N)c1Cl` (stereo unspecified) + C#Cc1c(F)ccc2cc(O)cc(-c3ncc4c(N5CC6CCC(C5)N6)nc(OCC56CCCN5CC(F)C6)nc4c3F)c12 gave an IC50 (second compound 0.0316 µM) of 328 nM, an IC50 (second compound 0.1 µM) of 126 nM and an IC50 (second compound 0.316 µM) of 61.6 nM. For the same compound, the IC50 (second compound 1 µM) was less than 31.6 nM, the IC50 (second compound 3.16 µM) was less than 31.6 nM and the IC50 (second compound 10 µM) was less than 31.6 nM. The viability, T/C [1] was 74.7%, the viability, T/C [2] was 65.3% and the viability, T/C [3] was 49.2%. It also gave a viability, T/C [4] of 42.2%, a viability, T/C [5] of 39.6% and a viability, T/C [6] of 35.9%. The viability, T/C [7] was 80.5%, the viability, T/C [8] was 52.5% and the viability, T/C [9] was 38.9%. It also gave a viability, T/C [10] of 36.8%, a viability, T/C [11] of 34.8% and a viability, T/C [12] of 30.5%. It also gave a viability, T/C [13] of 62.4%, a viability, T/C [14] of 40.5% and a viability, T/C [15] of 33.2%. It also gave a viability, T/C [16] of 30.3%, a viability, T/C [17] of 29.9% and a viability, T/C [18] of 26.7%. For the same compound, the viability, T/C [19] was 37.6%, the viability, T/C [20] was 46.7% and the viability, T/C [21] was 24.3%. The viability, T/C [22] was 22%, the viability, T/C [23] was 24.5% and the viability, T/C [24] was 20.9%. For the same compound, the viability, T/C [25] was 24.5%, the viability, T/C [26] was 23.1% and the viability, T/C [27] was 20.3%. For the same compound, the viability, T/C [28] was 16.5%, the viability, T/C [29] was 18% and the viability, T/C [30] was 18.3%. For the same compound, the viability, T/C [31] was 16.5%, the viability, T/C [32] was 19.6% and the viability, T/C [33] was 18%. It also gave a viability, T/C [34] of 14.8%, a viability, T/C [35] of 15% and a viability, T/C [36] of 16.3%.
Work on `NC1c2ccccc2OC12CCN(c1cnc3c(N4CCCc5ncccc54)n[nH]c3n1)CC2` (stereo unspecified) + C#Cc1c(F)ccc2cc(O)cc(-c3ncc4c(N5CC6CCC(C5)N6)nc(OCC56CCCN5CC(F)C6)nc4c3F)c12 yielded an IC50 (second compound 0.0316 µM) of 55.8 nM, an IC50 (second compound 0.1 µM) of less than 31.6 nM and an IC50 (second compound 0.316 µM) of less than 31.6 nM. The IC50 (second compound 1 µM) was less than 31.6 nM, the IC50 (second compound 3.16 µM) was less than 31.6 nM and the IC50 (second compound 10 µM) was less than 31.6 nM. The viability, T/C [1] was 53%, the viability, T/C [2] was 49.2% and the viability, T/C [3] was 34.8%. It also gave a viability, T/C [4] of 38.4%, a viability, T/C [5] of 29.5% and a viability, T/C [6] of 23.6%. It also gave a viability, T/C [7] of 44%, a viability, T/C [8] of 43.3% and a viability, T/C [9] of 32.8%. It also gave a viability, T/C [10] of 28.7%, a viability, T/C [11] of 27.7% and a viability, T/C [12] of 25.5%. The viability, T/C [13] was 38.1%, the viability, T/C [14] was 36.2% and the viability, T/C [15] was 24.1%. It also gave a viability, T/C [16] of 26.4%, a viability, T/C [17] of 24.2% and a viability, T/C [18] of 19.7%. For the same compound, the viability, T/C [19] was 27.1%, the viability, T/C [20] was 23.9% and the viability, T/C [21] was 25.2%. For the same compound, the viability, T/C [22] was 17%, the viability, T/C [23] was 19.6% and the viability, T/C [24] was 15%. For the same compound, the viability, T/C [25] was 17.8%, the viability, T/C [26] was 19.8% and the viability, T/C [27] was 16.1%. It also gave a viability, T/C [28] of 17.4%, a viability, T/C [29] of 17.5% and a viability, T/C [30] of 14.9%. It also gave a viability, T/C [31] of 15.7%, a viability, T/C [32] of 16.5% and a viability, T/C [33] of 14.3%. It also gave a viability, T/C [34] of 16.2%, a viability, T/C [35] of 15.6% and a viability, T/C [36] of 16.1%.
